For data set [1], the target named is T1, Aspergillus ficuum phytase, wild type (Ullah, 1988) (Aspergillus niger, UniProt P34752).
T1 construct: Ullah reportedly purified a phytase from wild-type A. ficuum; host or cells: wild-type A. ficuum (extracellular enzyme)
As to conditions: reported by Ullah 1988; substrate not given; cited from earlier work.

The target of data set [2] is Aspergillus ficuum phytase (WO 91/05053) (Aspergillus niger, UniProt P34752). The settings on record: reported in WO 91/05053; substrate not given; cited from earlier work.
Data set [3] has as its target T2, Aspergillus niger var. awamori strain ALKO243 (ATCC#38854) pH2.5 acid phosphatase, purified native enzyme, SEQ. ID. NO. 4 (Aspergillus awamori, UniProt P34755).
T2 construct: Peptide #1110T is derived from a trypsin digestion of purified native pH2.5 acid phosphatase; endogenous in cells; host or cells: A. niger var. awamori strain ALKO243 (ATCC#38854), purified in house from the cell-free culture medium
T2 sequence (P34755 20-479): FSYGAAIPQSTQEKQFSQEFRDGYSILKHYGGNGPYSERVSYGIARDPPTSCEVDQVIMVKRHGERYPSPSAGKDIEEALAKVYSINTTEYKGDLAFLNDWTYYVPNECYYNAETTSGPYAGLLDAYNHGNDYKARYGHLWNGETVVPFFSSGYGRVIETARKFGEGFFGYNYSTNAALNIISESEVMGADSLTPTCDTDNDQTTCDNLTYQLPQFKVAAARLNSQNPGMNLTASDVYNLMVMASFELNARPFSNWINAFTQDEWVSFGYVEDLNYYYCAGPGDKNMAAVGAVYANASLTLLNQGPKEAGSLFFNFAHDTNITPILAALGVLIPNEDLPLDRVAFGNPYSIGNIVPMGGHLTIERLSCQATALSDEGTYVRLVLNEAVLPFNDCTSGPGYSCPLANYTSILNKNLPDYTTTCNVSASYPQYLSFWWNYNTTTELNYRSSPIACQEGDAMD
The data set is described as follows: Apparent Km of purified pH2.5 acid phosphatase (phosphate release, molybdate detection). It is filed as biochemical. The settings on record: 37° C., read-out: apparent Km for sodium phytate.

Substrate in data set [4]: O=[N+]([O-])c1ccc(OP(=O)(O)O)cc1
Kind of data set: purified protein, by the assay type. The settings on record: other: 37° C., pH2.5, pH 2.5.

Substrate in data set [5]: O=P(O)(O)O[C@H]1[C@H](OP(=O)(O)O)[C@@H](OP(=O)(O)O)[C@H](OP(=O)(O)O)[C@@H](OP(=O)(O)O)[C@H]1OP(=O)(O)O
Kind of data set: Apparent Km of purified pH2.5 acid phosphatase (phosphate release, molybdate detection). Type of data set: biochemical, Aspergillus niger var. awamori. As to conditions: other: 37° C., pH 2.5.

Like-named read-outs stand apart in the source and are kept apart here.

Aspergillus ficuum phytase (WO 91/05053), sequence (P34752 24-467): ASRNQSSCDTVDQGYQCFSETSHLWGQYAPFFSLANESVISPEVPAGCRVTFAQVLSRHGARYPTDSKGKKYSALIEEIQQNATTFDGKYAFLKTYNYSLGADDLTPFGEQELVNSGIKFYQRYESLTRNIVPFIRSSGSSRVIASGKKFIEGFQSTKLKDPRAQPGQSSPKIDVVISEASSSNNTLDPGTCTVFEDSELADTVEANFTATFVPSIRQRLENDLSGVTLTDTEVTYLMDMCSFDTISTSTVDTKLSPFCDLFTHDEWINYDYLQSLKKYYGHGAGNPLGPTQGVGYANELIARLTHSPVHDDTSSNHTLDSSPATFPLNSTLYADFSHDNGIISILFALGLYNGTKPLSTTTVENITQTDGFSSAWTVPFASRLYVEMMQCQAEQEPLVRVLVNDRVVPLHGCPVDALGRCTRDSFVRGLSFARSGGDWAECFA
T1 sequence (P34752 20-467): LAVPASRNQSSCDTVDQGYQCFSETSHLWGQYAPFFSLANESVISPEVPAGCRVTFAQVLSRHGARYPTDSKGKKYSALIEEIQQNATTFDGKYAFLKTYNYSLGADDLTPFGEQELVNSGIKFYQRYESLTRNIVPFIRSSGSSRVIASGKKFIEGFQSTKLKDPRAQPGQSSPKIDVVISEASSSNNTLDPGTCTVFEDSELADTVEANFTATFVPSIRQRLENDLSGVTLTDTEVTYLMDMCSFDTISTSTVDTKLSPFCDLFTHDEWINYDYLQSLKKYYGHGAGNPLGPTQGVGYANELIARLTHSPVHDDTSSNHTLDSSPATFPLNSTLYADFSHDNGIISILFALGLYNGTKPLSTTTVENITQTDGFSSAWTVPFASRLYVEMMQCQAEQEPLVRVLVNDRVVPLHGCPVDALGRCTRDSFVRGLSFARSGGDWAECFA

Take `O=P(O)(O)O[C@H]1[C@H](OP(=O)(O)O)[C@@H](OP(=O)(O)O)[C@H](OP(=O)(O)O)[C@@H](OP(=O)(O)O)[C@H]1OP(=O)(O)O` [phytate, myo-inositol-hexaphosphate]: the Km in data set [1] was about 40 µM; in data set [2] it was about 250 µM.

In the case of `O=P(O)(O)O[C@H]1[C@H](OP(=O)(O)O)[C@@H](OP(=O)(O)O)[C@H](OP(=O)(O)O)[C@@H](OP(=O)(O)O)[C@H]1OP(=O)(O)O` [sodium phytate], the Km in data set [3] (listed as Na-phytate) and in data set [3] was about 700 µM in each case.

B1: Aspergillus niger var. awamori strain ALKO243 (ATCC#38854) pH2.5 acid phosphatase, purified native enzyme, SEQ. ID. NO. 4 (Aspergillus awamori) (protein)
chain: T2 sequence (P34755 20-479)
notes: Peptide #1110T is derived from a trypsin digestion of purified native pH2.5 acid phosphatase; endogenous in cells; host or cells: A. niger var. awamori strain ALKO243 (ATCC#38854), purified in house from the cell-free culture medium
For the molecule B1, the Km was 4000 µM in data set [4] and 700 µM in data set [5].
